How the values were obtained:
Assay in all cases: relative viability (nuclei count vs DMSO), 5 days (fraction); higher = more cells survive
[1] = compound: C1=CC2=NC=CN=C2C=C1/C=C/3\C(=O)NC(=O)S3 + O=C(CCCCCCC(=O)Nc1ccccc1)NO [Vorinostat] (partner 1 µM)
Outline: (§1)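 Relative viability equals treated-well nuclei counts divided by vehicle-well nuclei counts. Counts came from 4× images of lung cancer cell lines grown in 1536-well plates for 5 days after pin-tool dosing on the day after seeding. Dosing used one drug alone or a fixed anchor-drug dose plus five library-drug doses (not always all listed) in √10 steps, and values are medians of duplicate plates.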

[2] = compound: CCN1CCN(c2ccc(Nc3cc(N(C)C(=O)Nc4c(Cl)c(OC)cc(OC)c4Cl)ncn3)cc2)CC1 [BGJ398] + CCNC(=O)c1noc(-c2cc(C(C)C)c(O)cc2O)c1-c1ccc(CN2CCOCC2)cc1 [Luminespib] (partner 0.01 µM)
Outline: as §1

[3] = compound: CCN1CCN(c2ccc(Nc3cc(N(C)C(=O)Nc4c(Cl)c(OC)cc(OC)c4Cl)ncn3)cc2)CC1 [BGJ398] + Cc1cc(Nc2cc(N3CCN(C)CC3)nc(Sc3ccc(NC(=O)C4CC4)cc3)n2)n[nH]1 [Tozasertib] (partner 0.1 µM)
Outline: as §1

[4] = compound: CCN1CCN(c2ccc(Nc3cc(N(C)C(=O)Nc4c(Cl)c(OC)cc(OC)c4Cl)ncn3)cc2)CC1 [BGJ398] + O=C(c1cc(Cc2n[nH]c(=O)c3ccccc23)ccc1F)N1CCN(C(=O)C2CC2)CC1 [Olaparib] (partner 8 µM)
Outline: as §1

Row | Cell Line | relative viability ([1]; first compound 0.02 µM) | relative viability ([1]; first compound 0.06325 µM) | relative viability ([1]; first compound 0.2 µM) | relative viability ([1]; first compound 0.6325 µM) | relative viability ([1]; first compound 2 µM) | relative viability ([2]; first compound 0.01 µM) | relative viability ([2]; first compound 0.03162 µM) | relative viability ([2]; first compound 0.1 µM) | relative viability ([2]; first compound 0.3162 µM) | relative viability ([2]; first compound 1 µM) | relative viability ([3]; first compound 0.01 µM) | relative viability ([3]; first compound 0.03162 µM) | relative viability ([3]; first compound 0.1 µM) | relative viability ([3]; first compound 0.3162 µM) | relative viability ([3]; first compound 1 µM) | relative viability ([4]; first compound 0.01 µM) | relative viability ([4]; first compound 0.03162 µM) | relative viability ([4]; first compound 0.1 µM) | relative viability ([4]; first compound 0.3162 µM) | relative viability ([4]; first compound 1 µM)
1 | LC-2-ad | 0.589 | 0.768 | 0.707 | 0.668 | 0.434 | 0.958 | 1.05 | 0.978 | 1.04 | 1.07 | 0.451 | 0.489 | 0.486 | 0.474 | 0.374 | 0.766 | 0.759 | 0.694 | 0.677 | 0.749
2 | CAL-12T | 0.78 | 0.923 | 0.663 | 0.629 | 0.762 | 0.257 | 0.391 | 0.326 | 0.4 | 0.232 | 0.285 | 0.324 | 0.279 | 0.233 | 0.243 | 0.688 | 0.819 | 0.613 | 0.773 | 0.666
3 | RERF-LC-KJ | 0.714 | 0.717 | 0.689 | 0.63 | 0.635 | 1.23 | 1.25 | 1.32 | 1.26 | 1.31 | 0.455 | 0.558 | 0.479 | 0.441 | 0.533 | 0.961 | 0.959 | 0.969 | 0.917 | 0.92
4 | NCI-H1650 | 0.572 | 0.556 | 0.589 | 0.525 | 0.512 | 0.195 | – | 0.196 | 0.205 | 0.197 | 0.498 | – | 0.464 | 0.289 | 0.356 | 0.81 | 0.838 | 0.786 | 0.826 | 0.811
5 | BEN | 0.506 | 0.553 | 0.539 | 0.52 | 0.477 | 0.376 | 0.402 | 0.33 | 0.376 | 0.597 | 0.587 | 0.488 | 0.543 | 0.513 | 0.527 | 1.09 | 1.19 | 1.18 | 0.991 | 0.861
6 | EMC-BAC-2 | 0.488 | 0.535 | 0.602 | 0.452 | 0.222 | 1.14 | 1.25 | 1.22 | 1.16 | 1.09 | 0.28 | 0.314 | 0.3 | 0.276 | 0.312 | 0.456 | 0.568 | 0.519 | 0.547 | 0.456
7 | LU99A | 0.425 | 0.515 | 0.506 | 0.42 | 0.268 | 0.205 | 0.248 | 0.225 | 0.243 | 0.254 | 0.286 | 0.282 | 0.261 | 0.197 | 0.265 | 0.266 | 0.26 | 0.281 | 0.276 | 0.292
8 | ABC-1 | 1.27 | 1.16 | 1.56 | 1.01 | 0.912 | 0.795 | 0.782 | 0.507 | 0.912 | 0.876 | 0.186 | 0.168 | 0.197 | 0.173 | 0.198 | 0.864 | 0.934 | 0.887 | – | 0.616
9 | NCI-H2170 | 0.732 | 0.583 | 0.846 | 0.776 | 0.878 | 0.736 | 0.811 | 0.724 | 0.795 | 1.24 | 0.804 | 0.714 | 0.687 | 0.694 | 0.78 | 0.605 | 0.584 | 0.633 | 0.57 | 0.553
10 | NCI-H1299 | – | – | – | – | – | – | – | – | – | – | – | – | – | – | – | 0.961 | 0.971 | 0.977 | 1 | 0.999
11 | EBC-1 | – | – | – | – | – | – | – | – | – | – | – | – | – | – | – | 0.717 | 0.717 | 0.679 | 0.737 | 0.668
12 | NCI-H2347 | 0.53 | 0.565 | 0.718 | 0.49 | 0.591 | 0.396 | 0.666 | 0.746 | 0.471 | 0.453 | 0.698 | 0.575 | 0.515 | 0.621 | 0.567 | 0.539 | 0.546 | 0.553 | 0.631 | 0.63
13 | NCI-H1792 | – | – | – | – | – | 0.406 | 0.542 | 0.344 | 0.401 | 0.277 | – | – | – | – | – | 0.494 | 0.351 | 0.281 | 0.607 | 0.282
14 | A549 | – | – | – | – | – | – | – | – | – | – | – | – | – | – | – | 0.341 | 0.436 | 0.6 | 0.231 | 0.231
15 | NCI-H1563 | – | – | – | – | – | 0.492 | 0.525 | 0.499 | 0.556 | 0.544 | – | – | – | – | – | – | – | – | – | –
16 | HCC-78 | 0.464 | 0.428 | 0.379 | 0.449 | 0.349 | – | – | – | – | – | 0.355 | 0.461 | 0.445 | 0.419 | 0.476 | 0.785 | 0.838 | 0.967 | 0.78 | 0.823
17 | IA-LM | 0.884 | 0.467 | 0.964 | 0.985 | 0.968 | – | – | – | – | – | – | – | – | – | – | 0.772 | 0.841 | 0.917 | 0.742 | 0.79
18 | NCI-H1703 | – | – | – | – | – | – | – | – | – | – | – | – | – | – | – | 0.342 | 0.396 | 0.379 | 0.364 | 0.543
19 | NCI-H1648 | 0.435 | 0.357 | 0.424 | – | 0.423 | – | – | – | – | – | 0.304 | 0.58 | 0.469 | 0.399 | 0.44 | 0.658 | – | 1.18 | 0.85 | 0.487

From the supplement of paper PMC10307832
